This is an account of results in US10087188B2, “Benzamide imidazopyrazine Btk inhibitors” (MERCK SHARP & DOHME CORP., priority 2014, dated 2018).

Assay [1] deals with BTK enzyme (recombinant full-length BTK, hBTK) (Homo sapiens (Human), UniProt Q06187). As to the kind of experiment: Btk enzyme activity assay, LANCE TR-FRET. The assay is classed as biochemical. The following applies: 50 pM hBTK, 2 μM biotin-A5-peptide, 25 μM ATP; 60 minute compound & enzyme incubation; read-out: BTK binding IC50. The procedure: Btk Enzyme Activity Assay Methods
BTK enzymatic activity was determined with the LANCE (Lanthanide Chelate Excite) TR-FRET (Time-resolved fluorescence resonance energy transfer) assay. […] After 60 minutes incubation with detection reagents, reaction plates were read on a PerkinElmer EnVision plate reader using standard TR-FRET protocol.

The next assay deals with HeLa cells. Description: [3H] Adenosine uptake assay. Format: cell-based. The following applies: Homo sapiens, HeLa, accumulation of tritiated adenosine into HeLa cells; compound concentration range 10 μM to 0.032 nM; read-out: ADU inhibition IC50 (adenosine uptake inhibition potency). The method in brief:
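HeLa cells in HBSS + 5% FBS preincubated 30 min at ambient temperature with compound (0.25% DMSO), then [3H]adenosine (500 nM stock) added for 60 min. Uptake measured by scintillation proximity counting; IC50 from 4-parameter fit of counts vs log concentration.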

Chain of BTK enzyme (recombinant full-length BTK, hBTK) (Q06187 whole entry): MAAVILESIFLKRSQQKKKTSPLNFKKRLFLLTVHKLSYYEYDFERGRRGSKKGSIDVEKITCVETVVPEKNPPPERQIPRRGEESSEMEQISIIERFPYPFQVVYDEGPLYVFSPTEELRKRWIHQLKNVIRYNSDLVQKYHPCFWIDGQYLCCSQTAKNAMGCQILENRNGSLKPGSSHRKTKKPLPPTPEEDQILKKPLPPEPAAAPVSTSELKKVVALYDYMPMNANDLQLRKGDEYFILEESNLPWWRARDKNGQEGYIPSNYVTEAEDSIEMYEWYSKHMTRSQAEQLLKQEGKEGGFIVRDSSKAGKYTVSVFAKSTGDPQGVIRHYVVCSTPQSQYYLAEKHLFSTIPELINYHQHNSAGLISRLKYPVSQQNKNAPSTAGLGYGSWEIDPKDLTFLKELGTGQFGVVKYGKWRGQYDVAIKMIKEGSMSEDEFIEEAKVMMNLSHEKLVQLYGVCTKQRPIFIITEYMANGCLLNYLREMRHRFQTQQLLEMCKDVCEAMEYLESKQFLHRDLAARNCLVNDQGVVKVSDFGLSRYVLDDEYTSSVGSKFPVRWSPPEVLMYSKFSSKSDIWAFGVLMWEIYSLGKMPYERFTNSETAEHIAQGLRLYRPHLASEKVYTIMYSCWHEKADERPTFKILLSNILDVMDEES

With `C[C@H]1CO[C@@H](c2nc(-c3ccc(C(=O)Nc4cc(C(F)F)ccn4)cc3)c3c(N)ncc(Cl)n23)CN1[C@H]1CC[C@](C)(C(=O)O)CC1` [Example 205, trans-4-{(2R,5S)-2-[8-amino-5-chloro-1-(4-{[4-(difluoromethyl)pyridin-2-yl]carbamoyl}phenyl)imidazo [1,5-a]pyrazin-3-yl]-5-methylmorpholin-4-yl}-1-methylcyclohexanecarboxylic acid], the values for the IC50 (in assay [1]; with HeLa cells) were 1.3 nM and 10000 nM, respectively.

With `C[C@H]1CO[C@@H](c2nc(-c3ccc(C(=O)Nc4cc(C(F)F)ccn4)cc3)c3c(N)nccn23)CN1[C@H]1CC[C@](C)(C(=O)O)CC1` [Example 206, trans-4-{(2R,5S)-2-[8-amino-1-(4-{[4-(difluoromethyl)pyridin-2-yl]carbamoyl}phenyl)imidazo [1,5-a]pyrazin-3-yl]-5-methylmorpholin-4-yl}-1-methylcyclohexanecarboxylic acid], the values for the IC50 (in assay [1]; in the assay with HeLa cells) were 1 nM and 10000 nM, respectively.

For `C[C@H]1CO[C@@H](c2nc(-c3ccc(C(=O)Nc4cc(C(F)F)ccn4)cc3F)c3c(N)ncc(Cl)n23)CN1[C@H]1CC[C@](C)(C(=O)O)CC1` [Example 207, trans-4-{(2R,5S)-2-[8-amino-5-chloro-1-(4-{[4-(difluoromethyl)pyridin-2-yl]carbamoyl}-2-fluorophenyl)imidazo[1,5-a]pyrazin-3-yl]-5-methylmorpholin-4-yl}-1-methylcyclohexanecarboxylic acid], the IC50 in assay [1] is 737 nM; with HeLa cells it was 10000 nM.

On to `C[C@H]1CO[C@@H](c2nc(-c3ccc(C(=O)Nc4cc(C(F)F)ccn4)cc3F)c3c(N)nccn23)CN1[C@H]1CC[C@](C)(C(=O)O)CC1` [Example 208, trans-4-{(2R,5S)-2-[8-amino-1-(4-{[4-(difluoromethyl)pyridin-2-yl]carbamoyl}-2-fluorophenyl)imidazo[1,5-a]pyrazin-3-yl]-5-methylmorpholin-4-yl}-1-methylcyclohexanecarboxylic acid], for which the IC50 was 923 nM in assay [1] and 10000 nM with HeLa cells.

On to `C[C@H]1CO[C@@H](c2nc(-c3ccc(C(=O)Nc4cc(C5CC5)ccn4)cc3F)c3c(N)ncc(Cl)n23)CN1[C@H]1CC[C@](C)(C(=O)O)CC1` [Example 209, trans-4-[(2R,5S)-2-(8-amino-5-chloro-1-{4-[(4-cyclopropylpyridin-2-yl)carbamoyl]-2-fluorophenyl}imidazo[1,5-a]pyrazin-3-yl)-5-methylmorpholin-4-yl]-1-methylcyclohexanecarboxylic acid], for which the figures for the IC50 (in assay [1]; in the assay with HeLa cells) were 0.76 nM and 3160 nM, respectively.

In the case of `C[C@H]1CO[C@@H](c2nc(-c3ccc(C(=O)Nc4cc(C5CC5)ccn4)cc3F)c3c(N)nccn23)CN1[C@H]1CC[C@](C)(C(=O)O)CC1` [Example 210, trans-4-[(2R,5S)-2-(8-amino-1-{4-[(4-cyclopropylpyridin-2-yl)carbamoyl]-2-fluorophenyl}imidazo[1,5-a]pyrazin-3-yl)-5-methylmorpholin-4-yl]-1-methylcyclohexanecarboxylic acid], the IC50 came out at 1.5 nM in assay [1] and 6270 nM in the assay with HeLa cells.
